Measurements reported in EP4786461A1, “PYRAZOLE CARBOXYLIC ACID DERIVATIVE AND USE THEREOF IN MEDICINE” (Haisco Pharmaceutical Group Co., Ltd., priority 2023, dated 2025).
Where a name gives a salt, the structure may show the parent alone. Read-outs that look alike come from different tables or passages of the source.

Key:
[1] = target: T1, soluble guanylate cyclase (sGC) (Homo sapiens, UniProt Q02108+Q02153); experiment: In vitro detection experiment for soluble guanylate cyclase (sGC) activity (TR-FRET cGMP); assay type: biochemical; settings: enzymatic agonism and/or activation of sGC; 1.5 nM sGC, 5 µM GTP, 100 µM DETA NONOate
T1 construct: purchased ICE S2304F-H07SH2
T1 sequence (Q02153 1-619): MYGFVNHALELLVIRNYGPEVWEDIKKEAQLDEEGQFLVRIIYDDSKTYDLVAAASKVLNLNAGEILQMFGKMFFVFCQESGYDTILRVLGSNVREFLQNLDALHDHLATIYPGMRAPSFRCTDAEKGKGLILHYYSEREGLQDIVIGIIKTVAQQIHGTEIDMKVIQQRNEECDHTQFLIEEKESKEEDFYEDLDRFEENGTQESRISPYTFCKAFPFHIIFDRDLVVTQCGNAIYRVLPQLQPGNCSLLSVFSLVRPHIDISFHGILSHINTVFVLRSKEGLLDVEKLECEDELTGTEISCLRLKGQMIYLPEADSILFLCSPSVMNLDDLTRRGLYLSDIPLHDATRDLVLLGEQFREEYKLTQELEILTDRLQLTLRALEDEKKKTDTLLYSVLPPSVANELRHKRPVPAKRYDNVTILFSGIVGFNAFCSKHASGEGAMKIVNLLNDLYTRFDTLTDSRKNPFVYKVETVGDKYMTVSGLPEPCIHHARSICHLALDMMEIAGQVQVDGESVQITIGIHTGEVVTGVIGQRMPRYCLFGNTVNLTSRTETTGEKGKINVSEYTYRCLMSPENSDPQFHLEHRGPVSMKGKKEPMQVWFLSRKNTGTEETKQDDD
T1 sequence (Q02108 1-690): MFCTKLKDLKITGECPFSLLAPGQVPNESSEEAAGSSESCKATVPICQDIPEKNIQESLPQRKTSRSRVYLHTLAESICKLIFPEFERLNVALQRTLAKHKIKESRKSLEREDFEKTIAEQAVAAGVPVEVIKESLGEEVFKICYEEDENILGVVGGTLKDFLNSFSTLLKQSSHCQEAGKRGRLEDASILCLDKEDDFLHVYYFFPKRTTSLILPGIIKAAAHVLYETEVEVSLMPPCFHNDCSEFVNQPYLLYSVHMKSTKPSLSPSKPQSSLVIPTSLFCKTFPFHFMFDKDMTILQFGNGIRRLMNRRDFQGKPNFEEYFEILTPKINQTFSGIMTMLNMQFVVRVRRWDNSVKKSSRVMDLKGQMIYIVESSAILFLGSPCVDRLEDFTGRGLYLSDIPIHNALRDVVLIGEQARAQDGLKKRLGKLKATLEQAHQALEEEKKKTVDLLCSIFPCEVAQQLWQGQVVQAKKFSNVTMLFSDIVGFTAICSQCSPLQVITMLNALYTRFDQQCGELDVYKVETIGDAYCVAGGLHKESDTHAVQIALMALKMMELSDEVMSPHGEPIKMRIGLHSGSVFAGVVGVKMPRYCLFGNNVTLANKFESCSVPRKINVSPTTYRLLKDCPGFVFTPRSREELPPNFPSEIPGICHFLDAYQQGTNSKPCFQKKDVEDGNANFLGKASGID
Procedure: First, 100 nL of the compounds at different concentrations were transferred to a 384-well reaction plate (Greiner, Cat. No. 784075) using Echo 655 (LABCYTE, Cat # 655), with the final DMSO concentration of 1% in the reaction mixture; 2 µL of sGC (ICE, Cat. No. S2304F-H07SH2) was added to the 384-well reaction plate, and the mixture was centrifuged at 1000 rpm for 1 min; and then 1 µL of DETA NONOate was added, and the mixture was incubated at 37°C for 10 min. After the incubation was completed, 2 µL of GTP was added, and the mixture was centrifuged at 1000 rpm for 1 min and reacted at 37°C for 60 min. In the reaction system, the final concentrations of sGC, GTP, and DETA NONOate were 1.5 nM, 5 µM, and 100 µM, respectively. After the reaction was completed, 5 µL of the test mixture (PerkinElmer, Cat. No. 62GM2PEG) was added, and the mixture was incubated at room temperature for 60 min. The TR-FRET signal (Ratio: 665/620 nm) was read using a microplate reader (BMG, Cat. No. PHERAstar FSX). A nonlinear regression curve was fitted using GraphPad Prism software, and EC50 values were calculated. Compound A (Example 1 in WO 2010065275) was used as a positive reference compound. The activation rate was calculated according to Equation 2-1, where Low control represents the TR-FRET signal value of 1 µM compound A, and High control represents the TR-FRET signal value in the DMSO well. Stimulation% = (aveHighcontrol−cpdwell)/(ave High control−ave Low; control)*100% [formula] Table 2-1 Results of enzymatic agonism and/or activation of test compounds on soluble guanylate cyclase (sGC).

[2] = Stability test in rat liver microsomes; assay type: in vitro ADME
Procedure: At 37°C, 1 µM of the test compound was incubated with rat liver microsomes (0.5 mg/mL) supplemented with an NADPH regeneration system for 5, 10, 20, 30 and 60 minutes, and then the LC-MS/MS method was used to detect the concentration of the test compound in the resulting sample. The half-life (T1/2) and intrinsic clearance (CLint(mic)) of the compound in rat liver microsome solution were obtained by calculating the remaining percentage of the compound at the corresponding time points.

[3] = Mouse pharmacokinetic assay; assay type: in vivo, ICR mice; settings: mice, i.g., 10 mg/kg, plasma
Procedure: Experimental objective: In this experiment, a single dose of test compounds was administered to ICR mice intravenously and intragastrically, the concentrations of the test compounds in the plasma of mice were measured, and the pharmacokinetic characteristics and bioavailability of the test compounds in mice were evaluated.
Experimental animals: male ICR mice, 20-35 g, purchased from Chengdu Dossy Experimental Animals Co., Ltd.
Experimental method: On the day of the experiment, the ICR mice were randomly grouped according to their body weight. The animals were fasted but with water available overnight before the administration, and fed 4 h after the administration.
Sampling: Blood was taken from the orbits at specified time points, and placed in an EDTAK2 centrifuge tube. The tube was centrifuged at 5000 rpm for 10 min, and the plasma was collected.
Time points for plasma collection in G1 group: 0, 5 min, 15 min, 30 min, 1 h, 2 h, 4 h, 7 h, and 24 h.
Time points for plasma collection in G2 group: 0, 5 min, 15 min, 30 min, 1 h, 2 h, 4 h, 7 h, and 24 h.
Before analysis and detection, all the samples were stored at -60°C or lower. The samples were analyzed quantitatively by LC-MS/MS. Table 3-1 PK data of test compound (i.e., drug) in mice

[4] = Rat pharmacokinetic assay; assay type: in vivo, SD rats; settings: rats, i.g., 10 mg/kg, plasma
Procedure: Experimental animals: male SD rats, 180-200 g, purchased from Chengdu Dossy Experimental Animals Co., Ltd.
Experimental design: On the day of the experiment, the SD rats were randomly grouped according to their body weight. The animals were fasted but with water available overnight before the administration, and fed 4 h after the administration.
Blood was taken from the orbits at specified time points, and placed in an EDTAK2 centrifuge tube. The tube was centrifuged at 5000 rpm for 10 min, and the plasma was collected.
Blood sampling time points for the intravenous administration group: 0, 5 min, 15 min, 30 min, 1 h, 2 h, 4 h, 7 h and 24 h; blood sampling time points for the intragastric administration group: 0, 5 min, 15 min, 30 min, 1 h, 2 h, 4 h, 7 h and 24 h. Before analysis and detection, all the samples were stored at -60°C or lower. The samples were analyzed quantitatively by LC-MS/MS. Table 4-1 PK data of test compound (i.e., drug) in rats

[5] = rat liver microsomes 0.5 mg/mL, 1 µM compound, NADPH regeneration system, 37°C
[6] = rat, microsomes, rat liver microsomes 0.5 mg/mL, 1 µM compound, NADPH regeneration system, 37°C
[7] = rat, microsomes, rat liver microsomes 0.5 mg/mL, 1 µM compound, NADPH regeneration system, 37°C, read-out: CLint(mic)
[8] = rat liver microsomes 0.5 mg/mL, 1 µM compound, NADPH regeneration system, 37°C, 1 µM

Structure (SMILES)	EC50 [1] [nM]	AUC ([4]; rat, po, read-out: AUC) [ng·h/mL]	AUC ([3]; mouse, po, read-out: AUC) [ng·h/mL]	other results
CC(C)CN1CCN(c2ccc(-c3c(F)cc(Cl)cc3N3CCCC(n4ncc(C(=O)O)c4C(F)F)C3)cc2)CC1 (racemic) [Compound 1]	< 20	–	–	–
CC(C)CN1CCN(c2ccc(-c3c(F)cc(Cl)cc3N3CCCC(n4ncc(C(=O)O)c4C(F)F)C3)cc2)CC1 (single isomer, unassigned) [Compound 1-1]	–	–	–	half-life at 1 µM [2, 5]: 0.727 h; microsomal CLint at 1 µM ([2]; rat, microsomes): 31.8 µL/min/mg; AUC ([3]; mouse, in vivo, po, read-out: AUC): > 10000 ng·h/mL; AUC ([4]; rat, in vivo, po, read-out: AUC): > 10000 ng·h/mL
CC(C)CN1CCN2c3ccc(-c4ccc(Cl)cc4N4CCC[C@@H](n5ncc(C(=O)O)c5C(F)F)C4)cc3CCC2C1 (single isomer, unassigned) [Compound 8-1]	< 20	> 10000	–	half-life at 1 µM [2, 6]: 2.53 h; microsomal CLint at 1 µM [2, 7]: 9.13 µL/min/mg; AUC [3]: > 10000 ng·h/mL
CC(C)CN1CCN2c3ccc(-c4ccc(Cl)cc4N4CCC[C@H](n5ncc(C(=O)O)c5C(F)F)C4)cc3CCC2C1 (single isomer, unassigned) [Compound 8-2]	< 20	> 10000	> 10000	half-life at 1 µM [2, 6]: 1.63 h; microsomal CLint at 1 µM [2, 7]: 14.1 µL/min/mg
CC(C)CN1CCN2c3ccc(-c4ccc(Cl)cc4N4CCC[C@@H](n5ncc(C(=O)O)c5C(F)F)C4)cc3CCC2C1 (single isomer, unassigned) [Compound 9-1]	< 20	–	> 10000	CLint(mic) [2, 8]: 11.0 µL/min/mg; T1/2 [2, 8]: 2.1 h; AUC [4]: > 10000 ng·h/mL
CC(C)CN1CCN(c2ccc(-c3ccc(C(F)F)cc3N3CCC[C@@H](n4ncc(C(=O)O)c4C(F)F)C3)cc2)CC1 [Compound 3-1]	< 20	> 10000	> 10000	–
CC(C)CN1CCN(c2ccc(-c3ccc(C(F)F)cc3N3CCC[C@H](n4ncc(C(=O)O)c4C(F)F)C3)cc2)CC1 [Compound 3-2]	< 20	–	–	–
CC(C)CN1CCN2c3cc(F)c(-c4ccc(Cl)cc4N4CCC[C@@H](n5ncc(C(=O)O)c5C(F)F)C4)cc3CC[C@H]2C1 [Compound 5-1]	< 20	> 10000	> 10000	half-life at 1 µM [2, 6]: 2.33 h; microsomal CLint at 1 µM [2, 7]: 9.87 µL/min/mg
CC(C)CN1CCN2c3cc(F)c(-c4ccc(Cl)cc4N4CCC[C@H](n5ncc(C(=O)O)c5C(F)F)C4)cc3CC[C@H]2C1 [Compound 5-2]	< 20	–	> 10000	–
CC(C)CN1CCN2c3cc(F)c(-c4ccc(Cl)cc4N4CCC[C@@H](n5ncc(C(=O)O)c5C(F)F)C4)cc3CC[C@@H]2C1 [Compound 6-1]	< 20	> 10000	> 10000	half-life at 1 µM [2, 6]: 1.87 h; microsomal CLint at 1 µM [2, 7]: 12.4 µL/min/mg
CC(C)CN1CCN2c3cc(F)c(-c4ccc(Cl)cc4N4CCC[C@H](n5ncc(C(=O)O)c5C(F)F)C4)cc3CC[C@@H]2C1 [Compound 6-2]	< 20	> 10000	> 10000	half-life at 1 µM [2, 6]: 1.95 h; microsomal CLint at 1 µM [2, 7]: 11.8 µL/min/mg
CC(C)CN1CCN2c3ccc(-c4ccc(Cl)cc4N4CCCC(n5ncc(C(=O)O)c5C(F)F)C4)cc3CCC2C1 (stereo not drawn) [Compound 8]	< 20	–	–	–
CC(C)CN1CC2CCC(C1)N2c1ccc(-c2ccc(Cl)cc2N2CCCC(n3ncc(C(=O)O)c3C(F)F)C2)cc1 (stereo not drawn) [Compound 10]	< 20	–	–	–
CC(C)CN1CCN(c2ccc(-c3ccc(Cl)cc3N3CCC[C@@H](n4ncc(C(=O)O)c4C(F)F)C3)cc2)CC1 [Control compound 1, reference compound]	–	–	–	half-life at 1 µM [2, 5]: 0.183 h; microsomal CLint at 1 µM ([2]; rat liver microsomes 0.5 mg/mL, 1 µM compound, NADPH regeneration system, 37°C, read-out: CLint(mic)): 126 µL/min/mg
CC(C)CN1CCN2c3cc(F)c(-c4ccc(Cl)cc4N4CCCC(n5ncc(C(=O)O)c5C(F)F)C4)cc3CC[C@H]2C1 (stereo partly drawn) [Trifluoroacetate salt of Compound 5]	< 20	–	–	–
CC(C)CN1CC=C(c2ccc(-c3ccc(Cl)cc3N3CCCC(n4ncc(C(=O)O)c4C(F)F)C3)cc2)CC1 (stereo not drawn) [Trifluoroacetate salt of Compound 11]	< 20	–	–	–
CC(C)CN1CCC(c2ccc(-c3ccc(Cl)cc3N3CCCC(n4ncc(C(=O)O)c4C(F)F)C3)cc2)CC1 (stereo not drawn) [Trifluoroacetate salt of Compound 12]	< 20	–	–	–
